# Assay results reported in patent US20230082430A1 (C4 Therapeutics, Inc., priority 2019, published 2023).
# Read-outs that look alike come from different tables or passages of the source.
# System: NCIH929.1 cells
# Experiment: Cell viability assay for Table 2 (CellTiter-Glo 2.0, ATP quantification, 96 hr)
# Format: cell-based
# Conditions: NCIH929.1 cell viability, 96 hr, top concentration 1 μM, 14 points half log titration, read-out: IC50
# Description: Cell Viability Assay for Table 2
# CellTiter-Glo® 2.0 Assay was purchased from Promega (Madison, Wis., USA). NCIH929.1 cell line was purchased from ATCC (Manassas, Va., USA). Cell culture flasks and 384-well microplates were acquired from VWR (Radnor, Pa., USA).
Structure (SMILES),IC50 (96 h),IC50
"CC(C)(C)OC(=O)N1CCC(n2cc(Cc3ccc4c5c(cccc35)C(=O)N4C3CCC(=O)NC3=O)cn2)CC1 (racemic) [Compound 140, tert-butyl 4-(4-((1-(2,6-dioxopiperidin-3-yl)-2-oxo-1,2-dihydrobenzo[cd]indol-6-yl)methyl)-1H-pyrazol-1-yl)piperidine-1-carboxylate]",< 1 nM,
"N#Cc1ccc(N2CCN(Cc3ccc(Cc4ccc5c6c(cccc46)C(=O)N5C4CCC(=O)NC4=O)cc3)CC2)c(F)c1 (racemic) [Compound 183, 4-[4-[[4-[[1-(2,6-dioxo-3-piperidyl)-2-oxo-benzo[cd]indol-6-yl]methyl]phenyl]methyl]piperazin-1-yl]-3-fluoro-benzonitrile]",< 1 nM,
"O=C1CCC(N2C(=O)c3cccc4c(Cc5ccc(CN6CCOCC6)cc5)cnc2c34)C(=O)N1 (racemic) [Compound 221, 3-[20-[[4-(morpholinomethyl)phenyl]methyl]-25-oxo-27,30-diazatricyclododeca-(2),1(18),7(20),19(21),22(27)-pentaen-30-yl]piperidine-2,6-dione]",< 1 nM,
"O=C1CCC(N2C(=O)c3cccc4c(Cc5ccc(CN6CCC7(CCCO7)CC6)nc5)ccc2c34)C(=O)N1 (racemic) [Compound 268, 3-[6-[[6-(1-oxa-8-azaspiro[4.5]decan-8-ylmethyl)-3-pyridyl]methyl]-2-oxo-benzo[cd]indol-1-yl]piperidine-2,6-dione]",< 1 nM,
"CC1(C(=O)N2CCC(n3cc(Cc4ccc5c6c(cccc46)C(=O)N5C4CCC(=O)NC4=O)cn3)CC2)CCC1 (single isomer, unassigned) [Compound 67, 3-[6-[[1-[1-(1-methylcyclobutanecarbonyl)-4-piperidyl]pyrazol-4-yl]methyl]-2-oxo-benzo[cd]indol-1-yl]piperidine-2,6-dione]",< 1 nM,
"CC1(C(=O)N2CCC(n3cc(Cc4ccc5c6c(cccc46)C(=O)N5C4CCC(=O)NC4=O)cn3)CC2)CCC1 (single isomer, unassigned) [Compound 68, 3-[6-[[1-[1-(1-methylcyclobutanecarbonyl)-4-piperidyl]pyrazol-4-yl]methyl]-2-oxo-benzo[cd]indol-1-yl]piperidine-2,6-dione]",,< 1 nM
"N#Cc1ccc(N2CCN(Cc3cnn(Cc4ccc5c6c(cccc46)C(=O)N5C4CCC(=O)NC4=O)c3)CC2)c(F)c1 (single isomer, unassigned) [Compound 129, 4-[4-[[1-[[1-[2,6-dioxo-3-piperidyl]-2-oxo-benzo[cd]indol-6-yl]methyl]pyrazol-4-yl]methyl]piperazin-1-yl]-3-fluoro-benzonitrile]",< 1 nM,
"N#Cc1ccc(N2CCN(Cc3cnn(Cc4ccc5c6c(cccc46)C(=O)N5C4CCC(=O)NC4=O)c3)CC2)c(F)c1 (single isomer, unassigned) [Compound 130, 4-[4-[[1-[[1-[2,6-dioxo-3-piperidyl]-2-oxo-benzo[cd]indol-6-yl]methyl]pyrazol-4-yl]methyl]piperazin-1-yl]-3-fluoro-benzonitrile]",,< 1 nM
"CC(C)(C)OC(=O)N1CCC(n2cc(Cc3ccc4c5c(cccc35)C(=O)N4C3CCC(=O)NC3=O)cn2)CC1 (single isomer, unassigned) [Compound 141, tert-butyl 4-[4-[[1-[2,6-dioxo-3-piperidyl]-2-oxo-benzo[cd]indol-6-yl]methyl]pyrazol-1-yl]piperidine-1-carboxylate]",< 1 nM,
"CC(C)(C)OC(=O)N1CCC(n2cc(Cc3ccc4c5c(cccc35)C(=O)N4C3CCC(=O)NC3=O)cn2)CC1 (single isomer, unassigned) [Compound 142, tert-butyl 4-[4-[[1-[2,6-dioxo-3-piperidyl]-2-oxo-benzo[cd]indol-6-yl]methyl]pyrazol-1-yl]piperidine-1-carboxylate]",,< 1 nM
"CC(c1cnn(C2CCN(C(=O)C3(C)CCC3)CC2)c1)c1ccc2c3c(cccc13)C(=O)N2C1CCC(=O)NC1=O (single isomer, unassigned) [Compound 148, 3-(6-(1-(1-(1-(1-methylcyclobutane-1-carbonyl)piperidin-4-yl)-1H-pyrazol-4-yl)ethyl)-2-oxobenzo[cd]indol-1(2H)-yl)piperidine-2,6-dione]",< 1 nM,
"CC(c1cnn(C2CCN(C(=O)C3(C)CCC3)CC2)c1)c1ccc2c3c(cccc13)C(=O)N2C1CCC(=O)NC1=O (single isomer, unassigned) [Compound 149, 3-(6-(1-(1-(1-(1-methylcyclobutane-1-carbonyl)piperidin-4-yl)-1H-pyrazol-4-yl)ethyl)-2-oxobenzo[cd]indol-1(2H)-yl)piperidine-2,6-dione]",,< 1 nM
"O=C1CCC(N2C(=O)c3cccc4c(Cc5ccc(CN6CCN(S(=O)(=O)CC(F)(F)F)CC6)cc5)ccc2c34)C(=O)N1 (single isomer, unassigned) [Compound 159, 3-(2-Oxo-6-{4-[4-(2,2,2-trifluoro-ethanesulfonyl)-piperazin-1-ylmethyl]-benzyl}-2H-benzo[cd]indol-1-yl)-piperidine-2,6-dione]",< 1 nM,
"O=C1CCC(N2C(=O)c3cccc4c(Cc5ccc(CN6CCN(S(=O)(=O)CC(F)(F)F)CC6)cc5)ccc2c34)C(=O)N1 (single isomer, unassigned) [Compound 160, 3-(2-Oxo-6-{4-[4-(2,2,2-trifluoro-ethanesulfonyl)-piperazin-1-ylmethyl]-benzyl}-2H-benzo[cd]indol-1-yl)-piperidine-2,6-dione]",,< 1 nM
"O=C1CCC(N2C(=O)c3cccc4c(Cc5cnn(C6CCN(C7CCCC78CCC8)CC6)c5)ccc2c34)C(=O)N1 (single isomer, unassigned) [Compound 178, 3-[2-oxo-6-[[1-[1-[spiro[3.4]octan-8-yl]-4-piperidyl]pyrazol-4-yl]methyl]benzo[cd]indol-1-yl]piperidine-2,6-dione]",< 1 nM,
"O=C1CCC(N2C(=O)c3cccc4c(Cc5cnn(C6CCN(C7CCCC78CCC8)CC6)c5)ccc2c34)C(=O)N1 (single isomer, unassigned) [Compound 179, 3-[2-oxo-6-[[1-[1-[spiro[3.4]octan-8-yl]-4-piperidyl]pyrazol-4-yl]methyl]benzo[cd]indol-1-yl]piperidine-2,6-dione]",,< 1 nM
"N#Cc1ccc(N2CCN(Cc3ccc(Cc4ccc5c6c(cccc46)C(=O)N5C4CCC(=O)NC4=O)cc3)CC2)c(F)c1 (single isomer, unassigned) [Compound 184, 4-(4-(4-((1-(2,6-dioxopiperidin-3-yl)-2-oxo-1,2-dihydrobenzo[cd]indol-6-yl)methyl)benzyl)piperazin-1-yl)-3-fluorobenzonitrile]",< 1 nM,
"N#Cc1ccc(N2CCN(Cc3ccc(Cc4ccc5c6c(cccc46)C(=O)N5C4CCC(=O)NC4=O)cc3)CC2)c(F)c1 (single isomer, unassigned) [Compound 185, 4-(4-(4-((1-(2,6-dioxopiperidin-3-yl)-2-oxo-1,2-dihydrobenzo[cd]indol-6-yl)methyl)benzyl)piperazin-1-yl)-3-fluorobenzonitrile]",,< 1 nM
"CC1(CN2CCC(n3cc(Cc4ccc5c6c(cccc46)C(=O)N5C4CCC(=O)NC4=O)cn3)C(F)(F)C2)CCC1 (single isomer, unassigned) [Compound 186, 3-[6-[[1-[3,3-difluoro-1-[(1-methylcyclobutyl)methyl]-4-piperidyl]pyrazol-4-yl]methyl]-2-oxo-benzo[cd]indol-1-yl]piperidine-2,6-dione]",< 1 nM,
"CC1(CN2CCC(n3cc(Cc4ccc5c6c(cccc46)C(=O)N5C4CCC(=O)NC4=O)cn3)C(F)(F)C2)CCC1 (single isomer, unassigned) [Compound 187, 3-[6-[[1-[3,3-difluoro-1-[(1-methylcyclobutyl)methyl]-4-piperidyl]pyrazol-4-yl]methyl]-2-oxo-benzo[cd]indol-1-yl]piperidine-2,6-dione]",,< 1 nM
"O=C1CCC(N2C(=O)c3cccc4c(Cc5ccc(CN6CCN(c7ccccc7F)CC6)cc5)ccc2c34)C(=O)N1 (single isomer, unassigned) [Compound 189, 3-[6-[[4-[[4-(2-fluorophenyl)piperazin-1-yl]methyl]phenyl]methyl]-2-oxo-benzo[cd]indol-1-yl]piperidine-2,6-dione]",,< 1 nM
"O=C1CCC(N2C(=O)c3cccc4c(Cc5ccc(CN6CCN(c7ccccc7F)CC6)cc5)ccc2c34)C(=O)N1 (single isomer, unassigned) [Compound 190, 3-[6-[[4-[[4-(2-fluorophenyl)piperazin-1-yl]methyl]phenyl]methyl]-2-oxo-benzo[cd]indol-1-yl]piperidine-2,6-dione]",,< 100 nM
"O=C1CC[C@H](N2C(=O)c3cccc4c(Cc5ccc(CN6CCC7(CCCO7)CC6)cc5)ccc2c34)C(=O)N1 (single isomer, unassigned) [Compound 216, 3-[6-[[4-(1-oxa-8-azaspiro[4.5]decan-8-ylmethyl)phenyl]methyl]-2-oxo-benzo[cd]indol-1-yl]piperidine-2,6-dione]",< 1 nM,
"O=C1CCC(N2C(=O)c3cccc4c(Cc5ccc(CN6CCC7(CCCO7)CC6)cc5)ccc2c34)C(=O)N1 (single isomer, unassigned) [Compound 217, 3-[6-[[4-(1-oxa-8-azaspiro[4.5]decan-8-ylmethyl)phenyl]methyl]-2-oxo-benzo[cd]indol-1-yl]piperidine-2,6-dione]",< 1 nM,
"O=C1CC[C@H](N2C(=O)c3cccc4c(Cc5ccc(CN6CCOCC6)cc5)ccc2c34)C(=O)N1 (single isomer, unassigned) [Compound 219, 3-(6-(4-(morpholinomethyl)benzyl)-2-oxobenzo[cd]indol-1(2H)-yl)piperidine-2,6-dione]",< 1 nM,
"O=C1CCC(N2C(=O)c3cccc4c(Cc5ccc(CN6CCOCC6)cc5)ccc2c34)C(=O)N1 (single isomer, unassigned) [Compound 220, 3-(6-(4-(morpholinomethyl)benzyl)-2-oxobenzo[cd]indol-1(2H)-yl)piperidine-2,6-dione]",< 1 nM,
